Experimental data from patent publication US20020137929A1, “1 - (3-heterocyclylphenyl) isothiourea, -isourea, -guanidine and -amidine herbicidal agents” (Intellectual Property Department, BASF Aktiengesellschaft, priority 1998, published 2002).

Columns and labels:
GALAP (Galium) = experiment: Postemergence herbicidal evaluation; assay type: in vivo, Galium aparine; conditions: postemergence
Procedure, shortened: (§1)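 Herbicidal effect was judged by eye on a 0–9 scale covering stand, vigor, deformity, size and chlorosis, compared with controls, four to five weeks after seedlings about two weeks old were sprayed (40 psi, ~0.0156–0.500 kg/ha).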

[1] = tested on: IPOHE (Morningglory, Ivyleaf); experiment: Postemergence herbicidal evaluation; assay type: in vivo, Ipomoea hederacea; conditions: postemergence
Procedure, shortened: as §1

SETVI (Foxtail, Green) [2] = experiment: Postemergence herbicidal evaluation; assay type: in vivo, Setaria viridis; conditions: postemergence
Procedure, shortened: as §1

[3] = tested on: TRZAWR (Wheat, Winter, cv Riband); experiment: Postemergence herbicidal evaluation; assay type: in vivo, Triticum aestivum; conditions: postemergence
Procedure, shortened: as §1

ABUTH (Velvetleaf) = experiment: Preemergence herbicidal evaluation; assay type: in vivo, Abutilon theophrasti; conditions: rated 4-5 weeks after treatment
Procedure, shortened: (§2)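 Scores (0–9) reflect visual comparison with control plants for stand, vigor, malformation, size and chlorosis. Compound was applied to the soil after sowing, before emergence, as an aqueous acetone spray (about 0.0156–0.500 kg/ha), and cups were kept in a greenhouse for 4–5 weeks.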

[4] = tested on: IPOHE (Morningglory, Ivyleaf); experiment: Preemergence herbicidal evaluation; assay type: in vivo, Ipomoea hederacea; conditions: rated 4-5 weeks after treatment
Procedure, shortened: as §2

ECHCG (Barnyardgrass) = experiment: Preemergence herbicidal evaluation; assay type: in vivo, Echinochloa crus-galli; conditions: rated 4-5 weeks after treatment
Procedure, shortened: as §2

SETVI (Foxtail, Green) [5] = experiment: Preemergence herbicidal evaluation; assay type: in vivo, Setaria viridis; conditions: rated 4-5 weeks after treatment
Procedure, shortened: as §2

ZEAMX (Corn, Field) = experiment: Preemergence herbicidal evaluation; assay type: in vivo, Zea mays; conditions: rated 4-5 weeks after treatment
Procedure, shortened: as §2

[6] = tested on: ECHORC (Watergrass (Calif.)); experiment: Preemergence weed control under flooded paddy conditions; assay type: in vivo, Echinochloa oryzoides; conditions: rated 3-4 weeks after treatment
Procedure, shortened: (§3)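 Silt loam, seeds in top 0.5 cm; flood held 1.5-3 cm; test cpd as acetone/water 50/50 into flood water, ~0.0313-0.500 kg/ha a.i.; greenhouse 3-4 wk; visual 0-9 score vs control.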

CYPIR (Rice Flatsedge) = experiment: as above; assay type: in vivo, Cyperus iria; conditions: rated 3-4 weeks after treatment
Procedure, shortened: as §3

MOOVA (Monochoria) = experiment: as above; assay type: in vivo, Monochoria vaginalis; conditions: rated 3-4 weeks after treatment
Procedure, shortened: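 Flooded-pot preemergence screen with silt loam and seeds in the upper 0.5 cm. Dose about 0.0313 to 0.500 kg/ha, delivered into flood water; visual 0-9 score after 3 to 4 weeks.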

[7] = tested on: ECHORC (Watergrass (Calif.)); experiment: Postemergence weed control under flooded paddy conditions; assay type: in vivo, Echinochloa oryzoides; conditions: postemergence weeds, 3-4 weeks after treatment
Procedure, shortened: (§4)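 Containers holding 3–5 cm weeds and rice at 1.5–2.5 leaves are flooded to 1.5–3 cm above soil. Compound in 50/50 v/v aqueous/acetone is then added directly to the water, about 0.0313–0.500 kg/ha. Plants are kept in the greenhouse and rated 0–9 visually at 3–4 weeks.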

[8] = tested on: SAGPY (Arrowhead (Pygmaea)); experiment: as above; assay type: in vivo, Sagittaria pygmaea; conditions: postemergence weeds, 3-4 weeks after treatment
Procedure, shortened: as §4

CCOC(=O)CN1C(=O)C2(CC2)SC1=Nc1cc(-n2c(=O)cc(C(F)(F)F)n(C)c2=O)c(F)cc1Cl [Compound 15, Ethyl 5-{{2-chloro-5-[3,6-dihydro-3-methyl-2,6-dioxo-4-(trifluoromethyl)-1(2H)-pyrimidinyl]-4-fluorophenyl}imino}-7-oxo-4-thia-6-azaspiro[2.4]-heptane-6-acetate]
GALAP herbicidal rating (GALAP (Galium); rate 0.0156 kg/ha): 0.0
GALAP herbicidal rating (GALAP (Galium); rate 0.0313 kg/ha): 0.0
GALAP herbicidal rating (GALAP (Galium); rate 0.0625 kg/ha): 3.0
GALAP herbicidal rating (GALAP (Galium); rate 0.1250 kg/ha): 6.0
IPOHE herbicidal rating ([1]; rate 0.0156 kg/ha): 6.0
IPOHE herbicidal rating ([1]; rate 0.0313 kg/ha): 9.0
IPOHE herbicidal rating ([1]; rate 0.0625 kg/ha): 9.0
IPOHE herbicidal rating ([1]; rate 0.1250 kg/ha): 9.0
SETVI herbicidal rating (SETVI (Foxtail, Green) [2]; rate 0.0156 kg/ha): 0.0
SETVI herbicidal rating (SETVI (Foxtail, Green) [2]; rate 0.0313 kg/ha): 0.0
SETVI herbicidal rating (SETVI (Foxtail, Green) [2]; rate 0.0625 kg/ha): 2.0
SETVI herbicidal rating (SETVI (Foxtail, Green) [2]; rate 0.1250 kg/ha): 7.0
TRZAWR herbicidal rating ([3]; rate 0.0156 kg/ha): 5.0
TRZAWR herbicidal rating ([3]; rate 0.0313 kg/ha): 6.0
TRZAWR herbicidal rating ([3]; rate 0.0625 kg/ha): 6.5
TRZAWR herbicidal rating ([3]; rate 0.1250 kg/ha): 7.0
ABUTH preemergence herbicidal rating (ABUTH (Velvetleaf); rate 0.0156 kg/ha): 1.5
ABUTH preemergence herbicidal rating (ABUTH (Velvetleaf); rate 0.0313 kg/ha): 3.0
ABUTH preemergence herbicidal rating (ABUTH (Velvetleaf); rate 0.0625 kg/ha): 9.0
ABUTH preemergence herbicidal rating (ABUTH (Velvetleaf); rate 0.1250 kg/ha): 9.0
ABUTH preemergence herbicidal rating (ABUTH (Velvetleaf); rate 0.2500 kg/ha): 9.0
IPOHE preemergence herbicidal rating ([4]; rate 0.0156 kg/ha): 1.0
IPOHE preemergence herbicidal rating ([4]; rate 0.0313 kg/ha): 1.5
IPOHE preemergence herbicidal rating ([4]; rate 0.0625 kg/ha): 1.5
IPOHE preemergence herbicidal rating ([4]; rate 0.1250 kg/ha): 7.0
IPOHE preemergence herbicidal rating ([4]; rate 0.2500 kg/ha): 9.0
ECHCG preemergence herbicidal rating (ECHCG (Barnyardgrass); rate 0.0156 kg/ha): 0.0
ECHCG preemergence herbicidal rating (ECHCG (Barnyardgrass); rate 0.0313 kg/ha): 0.5
ECHCG preemergence herbicidal rating (ECHCG (Barnyardgrass); rate 0.0625 kg/ha): 1.0
ECHCG preemergence herbicidal rating (ECHCG (Barnyardgrass); rate 0.1250 kg/ha): 2.0
ECHCG preemergence herbicidal rating (ECHCG (Barnyardgrass); rate 0.2500 kg/ha): 4.5
SETVI preemergence herbicidal rating (SETVI (Foxtail, Green) [5]; rate 0.0156 kg/ha): 0.5
SETVI preemergence herbicidal rating (SETVI (Foxtail, Green) [5]; rate 0.0313 kg/ha): 0.5
SETVI preemergence herbicidal rating (SETVI (Foxtail, Green) [5]; rate 0.0625 kg/ha): 0.5
SETVI preemergence herbicidal rating (SETVI (Foxtail, Green) [5]; rate 0.1250 kg/ha): 4.0
SETVI preemergence herbicidal rating (SETVI (Foxtail, Green) [5]; rate 0.2500 kg/ha): 9.0
ZEAMX preemergence herbicidal rating (ZEAMX (Corn, Field); rate 0.0156 kg/ha): 1.0
ZEAMX preemergence herbicidal rating (ZEAMX (Corn, Field); rate 0.0313 kg/ha): 1.0
ZEAMX preemergence herbicidal rating (ZEAMX (Corn, Field); rate 0.0625 kg/ha): 2.5
ZEAMX preemergence herbicidal rating (ZEAMX (Corn, Field); rate 0.1250 kg/ha): 3.0
ZEAMX preemergence herbicidal rating (ZEAMX (Corn, Field); rate 0.2500 kg/ha): 5.0
Herbicidal rating ECHORC ([6]; 0.0313 kg/ha): 6.0
Herbicidal rating ECHORC ([6]; 0.0625 kg/ha): 9.0
Herbicidal rating ECHORC ([6]; 0.1250 kg/ha): 9.0
Herbicidal rating ECHORC ([6]; 0.2500 kg/ha): 9.0
Herbicidal rating CYPIR (CYPIR (Rice Flatsedge); 0.0313 kg/ha): 2.0
Herbicidal rating CYPIR (CYPIR (Rice Flatsedge); 0.0625 kg/ha): 2.0
Herbicidal rating CYPIR (CYPIR (Rice Flatsedge); 0.1250 kg/ha): 6.0
Herbicidal rating CYPIR (CYPIR (Rice Flatsedge); 0.2500 kg/ha): 7.0
Herbicidal rating MOOVA (MOOVA (Monochoria); 0.0313 kg/ha): 9.0
Herbicidal rating MOOVA (MOOVA (Monochoria); 0.0625 kg/ha): 9.0
Herbicidal rating MOOVA (MOOVA (Monochoria); 0.1250 kg/ha): 9.0
Herbicidal rating MOOVA (MOOVA (Monochoria); 0.2500 kg/ha): 9.0
Herbicidal rating ECHORC ([7]; rate 0.0313 kg/ha): 6.0
Herbicidal rating ECHORC ([7]; rate 0.0625 kg/ha): 9.0
Herbicidal rating ECHORC ([7]; rate 0.1250 kg/ha): 9.0
Herbicidal rating ECHORC ([7]; rate 0.2500 kg/ha): 9.0
Herbicidal rating SAGPY ([8]; rate 0.0313 kg/ha): 0.0
Herbicidal rating SAGPY ([8]; rate 0.0625 kg/ha): 0.0
Herbicidal rating SAGPY ([8]; rate 0.1250 kg/ha): 0.0
Herbicidal rating SAGPY ([8]; rate 0.2500 kg/ha): 0.0

CN(C)N1C(=O)CSC1=Nc1cc(-n2c(=O)cc(C(F)(F)F)n(C)c2=O)c(F)cc1Cl [Compound 23, 3-{4-Chloro-5-{[3-(dimethylamino)-4-oxo-2-thiazolidinylidine]amino}-2-fluorophenyl}-1-methyl-6-(trifluoromethyl)-2,4(1H,3H)-pyrimidinedione]
GALAP herbicidal rating (GALAP (Galium); rate 0.0158 kg/ha): 3.0
GALAP herbicidal rating (GALAP (Galium); rate 0.0315 kg/ha): 7.0
GALAP herbicidal rating (GALAP (Galium); rate 0.0630 kg/ha): 9.0
IPOHE herbicidal rating ([1]; rate 0.0158 kg/ha): 4.0
IPOHE herbicidal rating ([1]; rate 0.0315 kg/ha): 9.0
IPOHE herbicidal rating ([1]; rate 0.0630 kg/ha): 9.0
SETVI herbicidal rating (SETVI (Foxtail, Green) [2]; rate 0.0158 kg/ha): 2.0
SETVI herbicidal rating (SETVI (Foxtail, Green) [2]; rate 0.0315 kg/ha): 4.0
SETVI herbicidal rating (SETVI (Foxtail, Green) [2]; rate 0.0630 kg/ha): 4.0
TRZAWR herbicidal rating ([3]; rate 0.0158 kg/ha): 2.5
TRZAWR herbicidal rating ([3]; rate 0.0315 kg/ha): 4.0
TRZAWR herbicidal rating ([3]; rate 0.0630 kg/ha): 5.0
ABUTH preemergence herbicidal rating (ABUTH (Velvetleaf); rate 0.0156 kg/ha): 0.0
ABUTH preemergence herbicidal rating (ABUTH (Velvetleaf); rate 0.0313 kg/ha): 1.0
ABUTH preemergence herbicidal rating (ABUTH (Velvetleaf); rate 0.0625 kg/ha): 9.0
ABUTH preemergence herbicidal rating (ABUTH (Velvetleaf); rate 0.1250 kg/ha): 9.0
ABUTH preemergence herbicidal rating (ABUTH (Velvetleaf); rate 0.2500 kg/ha): 9.0
IPOHE preemergence herbicidal rating ([4]; rate 0.0156 kg/ha): 0.0
IPOHE preemergence herbicidal rating ([4]; rate 0.0313 kg/ha): 0.0
IPOHE preemergence herbicidal rating ([4]; rate 0.0625 kg/ha): 1.0
IPOHE preemergence herbicidal rating ([4]; rate 0.1250 kg/ha): 5.0
IPOHE preemergence herbicidal rating ([4]; rate 0.2500 kg/ha): 9.0
ECHCG preemergence herbicidal rating (ECHCG (Barnyardgrass); rate 0.0156 kg/ha): 0.0
ECHCG preemergence herbicidal rating (ECHCG (Barnyardgrass); rate 0.0313 kg/ha): 1.0
ECHCG preemergence herbicidal rating (ECHCG (Barnyardgrass); rate 0.0625 kg/ha): 2.0
ECHCG preemergence herbicidal rating (ECHCG (Barnyardgrass); rate 0.1250 kg/ha): 4.0
ECHCG preemergence herbicidal rating (ECHCG (Barnyardgrass); rate 0.2500 kg/ha): 6.0
SETVI preemergence herbicidal rating (SETVI (Foxtail, Green) [5]; rate 0.0156 kg/ha): 1.0
SETVI preemergence herbicidal rating (SETVI (Foxtail, Green) [5]; rate 0.0313 kg/ha): 1.0
SETVI preemergence herbicidal rating (SETVI (Foxtail, Green) [5]; rate 0.0625 kg/ha): 5.0
SETVI preemergence herbicidal rating (SETVI (Foxtail, Green) [5]; rate 0.1250 kg/ha): 5.0
SETVI preemergence herbicidal rating (SETVI (Foxtail, Green) [5]; rate 0.2500 kg/ha): 6.0
ZEAMX preemergence herbicidal rating (ZEAMX (Corn, Field); rate 0.0156 kg/ha): 0.0
ZEAMX preemergence herbicidal rating (ZEAMX (Corn, Field); rate 0.0313 kg/ha): 1.0
ZEAMX preemergence herbicidal rating (ZEAMX (Corn, Field); rate 0.0625 kg/ha): 2.0
ZEAMX preemergence herbicidal rating (ZEAMX (Corn, Field); rate 0.1250 kg/ha): 5.0
ZEAMX preemergence herbicidal rating (ZEAMX (Corn, Field); rate 0.2500 kg/ha): 7.0
Herbicidal rating ECHORC ([6]; 0.1160 kg/ha): 4.0
Herbicidal rating ECHORC ([6]; 0.2310 kg/ha): 4.0
Herbicidal rating ECHORC ([6]; 0.4630 kg/ha): 4.0
Herbicidal rating CYPIR (CYPIR (Rice Flatsedge); 0.1160 kg/ha): 0.0
Herbicidal rating CYPIR (CYPIR (Rice Flatsedge); 0.2310 kg/ha): 0.0
Herbicidal rating CYPIR (CYPIR (Rice Flatsedge); 0.4630 kg/ha): 0.0
Herbicidal rating MOOVA (MOOVA (Monochoria); 0.1160 kg/ha): 9.0
Herbicidal rating MOOVA (MOOVA (Monochoria); 0.2310 kg/ha): 9.0
Herbicidal rating MOOVA (MOOVA (Monochoria); 0.4630 kg/ha): 9.0
Herbicidal rating ECHORC ([7]; rate 0.1160 kg/ha): 4.0
Herbicidal rating ECHORC ([7]; rate 0.2310 kg/ha): 4.0
Herbicidal rating ECHORC ([7]; rate 0.4630 kg/ha): 4.0
Herbicidal rating SAGPY ([8]; rate 0.1160 kg/ha): 0.0
Herbicidal rating SAGPY ([8]; rate 0.2310 kg/ha): 0.0
Herbicidal rating SAGPY ([8]; rate 0.4630 kg/ha): 3.0
